This is an account of results in ChEMBL document CHEMBL1201862, “PubChem BioAssay data set” (2004).

Among the test systems are DU-145; SK-MEL-5; SK-MEL-2; SK-MEL-28; NCI-H226; RPMI-8226; HT-29; UACC-257; HCC 2998; BT-549; SK-OV-3; ACHN; OVCAR-4; MDA-MB-231; NCI/ADR-RES; SR; HOP-62; CCRF-CEM; K562; 786-0.
What all share (assay): inhibition of tumour cell growth, NCI panel, 48 h

Values joined by “and” are separate entries in the source; they are usually repeats but may differ in a detail not shown here. Equal entries are not always repeated.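 All cell lines were grown in 96-well plates and treated with compound for 48 hours. The concentration for 50% growth inhibition is given as GI50.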 Active and inactive are the calls of the source. No stated cut-off is given here; in the data, active = GI50 up to about 1.1 µM and inactive = higher. Bounds are passed on as bounds.

As to `CCN1CCC(O)(C(C(=O)O)c2ccccc2)CC1` (stereo not drawn), the GI50 in the experiment on DU-145, in the experiment on SK-MEL-5, in the experiment with SK-MEL-2, with SK-MEL-28, in the experiment on NCI-H226 and in the experiment with RPMI-8226 was > 100 µM (inactive) each time. Besides, the GI50 in the experiment with HT-29, in the experiment with UACC-257, in the experiment with HCC 2998, with BT-549, in the experiment with SK-OV-3 and in the experiment on ACHN was > 100 µM (inactive) in each case. The GI50 in the experiment with OVCAR-4, with MDA-MB-231, in the experiment on NCI/ADR-RES, in the experiment on SR, in the experiment with HOP-62 and in the experiment with CCRF-CEM was > 100 µM (inactive) each time. Also, the GI50 with K562 is > 100 µM (inactive).
Take `CCOC(=O)C(NC(=O)c1ccccc1)(c1ccc(S(=O)(=O)Nc2onc(C)c2C)cc1)C(F)(F)F` (stereo not drawn): the GI50 with DU-145, in the experiment with SK-MEL-5, in the experiment on 786-0, in the experiment on SK-MEL-2, in the experiment on SK-MEL-28 and in the experiment with NCI-H226 was > 100 µM (inactive) in each case. For the same compound, the GI50 was > 100 µM (inactive) in the experiment on RPMI-8226; > 100 µM (inactive) in the experiment with HT-29; > 100 µM (inactive) with UACC-257; > 100 µM (inactive) with HCC 2998; > 100 µM (inactive) with BT-549; 0.495 µM (active) in the experiment on SK-OV-3. Besides, the GI50 with ACHN, with OVCAR-4, in the experiment on MDA-MB-231, in the experiment on NCI/ADR-RES, in the experiment on SR and in the experiment with HOP-62 was > 100 µM (inactive) throughout. For the same compound, the GI50 with CCRF-CEM and with K562 was > 100 µM (inactive) throughout.
For the compound `Oc1ccc2ccccc2c1/N=N/c1ccccc1`, the GI50 with DU-145 was > 100 µM (inactive); in the experiment with SK-MEL-5, > 100 µM (inactive); in the experiment with SK-MEL-2, > 100 µM (inactive); with SK-MEL-28, > 100 µM (inactive); in the experiment on NCI-H226, 73.3 µM (inactive); with RPMI-8226, > 100 µM (inactive). Further, the GI50 with HT-29 was 49.5 µM (inactive) and > 64.7 µM (inactive); in the experiment with UACC-257, > 100 µM (inactive); in the experiment on HCC 2998, > 100 µM (inactive); with BT-549 it was > 100 µM (inactive); in the experiment on SK-OV-3 it was 53.3 µM (inactive); in the experiment with ACHN, 61 µM (inactive) and 60.7 µM (inactive). Also, the GI50 in the experiment on OVCAR-4 was > 70.5 µM (inactive) and 45.2 µM (inactive); in the experiment with MDA-MB-231 it was 54.5 µM (inactive) and > 82.4 µM (inactive); in the experiment on NCI/ADR-RES it was > 100 µM (inactive); in the experiment on SR, > 100 µM (inactive); in the experiment on HOP-62, 33.5 µM (inactive) and > 60 µM (inactive); in the experiment on CCRF-CEM it was > 100 µM (inactive). In addition, the GI50 with K562 is > 100 µM (inactive) and 91 µM (inactive).
`Cc1cc(C)nc(NS(=O)(=O)c2ccc(NNC(=O)c3cccc4c(=O)c5ccccc5[nH]c34)cc2)n1`: the GI50 with DU-145 is > 100 µM (inactive); with SK-MEL-5 it was 52.1 µM (inactive); with 786-0, > 100 µM (inactive); in the experiment with SK-MEL-2, 0.0493 µM (active); in the experiment with SK-MEL-28, 29.2 µM (inactive); with NCI-H226 it was 51.1 µM (inactive). Besides, the GI50 in the experiment with RPMI-8226 is 57.5 µM (inactive); with HT-29, 66.5 µM (inactive); in the experiment with UACC-257, > 100 µM (inactive); with HCC 2998 it was 44.9 µM (inactive); in the experiment with BT-549, 53.5 µM (inactive); with SK-OV-3, 55.5 µM (inactive). Also, the GI50 in the experiment on ACHN was 32.4 µM (inactive); in the experiment on OVCAR-4, 72.3 µM (inactive); with MDA-MB-231, 37.6 µM (inactive); with NCI/ADR-RES, > 100 µM (inactive); in the experiment with SR, 37.5 µM (inactive); with HOP-62, 71.8 µM (inactive). The GI50 in the experiment on CCRF-CEM was 35.4 µM (inactive); in the experiment with K562, 41 µM (inactive).
